From patent publication US7511042B2, “Triazole compounds” (Boehringer Ingelheim Pharmaceuticals, Inc., priority 2003, dated 2009)

| SMILES | melting point |
| --- | --- |
| Cc1ccc(C(=O)Nc2cc(C(C)(C)C)ccc2[S+](C)[O-])cc1-n1cc(C(=O)NCC(C)(C)C)nn1 (centres unmarked) [Example 13, 1-[5-(5-tert-Butyl-2-methanesulfinyl-phenylcarbamoyl)-2-methyl-phenyl]-1H-1,2,3-triazole-4-carboxylic acid (2,2-dimethyl-propyl)-amide] | 74 to 78 °C (dec.) |
| COc1cnc(C(C)(C)C)cc1NC(=O)c1ccc(C)c(-n2cc(C(=O)NCC(C)(C)C)nn2)c1 [Example 12, 1-[5-(2-tert-Butyl-5-methoxy-pyridin-4-ylcarbamoyl)-2-methyl-phenyl]-1H-1,2,3-triazole-4-carboxylic acid (2,2-dimethyl-propyl)-amide] | 181 to 182 °C (dec.) |
